Laboratory results as given in patent US11459547B2, “Method for producing osteoblast cluster using human iPS cells” (priority 2017, dated 2022).
Entries after “also recorded” stand apart in the source; their conditions may differ.

Key:
Assay type in all cases: cell-based
[1] = system: human iPS cell embryoid bodies (409B2); experiment: Mesoderm differentiation induction of iPS cell embryoid bodies, immunofluorescent staining of mesodermal marker Brachyury; settings: embryoid body formation 1 day, then static culture 5 days in mesoderm differentiation induction medium with 30 CHIR99021 and/or 5 cyclopamine; the label names the compound(s) present
Method: The iPS cells were washed with phosphate buffered saline (PBS), and treated with 1 ml of a CTK solution (0.25% trypsin, 0.1 mg/ml collagenase IV, 10 mM CaCl2), 20% KSR) at 37° C. for 1 minute. After that, the CTK solution was removed by aspiration, and 1 ml of PBS was added. PBS was removed, and only the feeder cells exfoliated from the culture plate were removed by aspiration as much as possible. After that, adherent iPS cells remaining in the culture plate were collected using 5 ml of ES medium (RCHEMD001) supplemented with 4 ng/ml FGF. The resultant cell suspension was transferred to a low-attachment culture dish (Thermo Fisher Scientific, Cat. #150239), and subjected to static culture for 1 day to induce the formation of embryoid bodies. As a control, the formation of embryoid bodies was performed for 0 days or 4 days.
After static culture had been performed for 1 day, iPS cell embryoid bodies were collected. […] As a control, osteoblastic differentiation induction described in (1-4) was performed after the embryoid body formation described in (1-2) without mesoderm differentiation induction. For the evaluation of mesoderm differentiation induction, immunofluorescent staining using a mesodermal marker Brachyury was performed.

[2] = system: human iPS cell embryoid bodies (409B2); experiment: Mesoderm induction ratio by immunofluorescent staining of Brachyury; settings: embryoid body formation 1 day; mesoderm differentiation induction medium with or free of CHIR99021 or cyclopamine; the label names the compound(s) present; 17% in the absence of both
Method: The immunostaining was pertained using: anti-Brachyury polyclonal antibody (AF2085, R&D SYSTEMS) as a primary antibody; Alexa Fluor594-labeled anti-goat IgG antibody (Thermo Fisher Scientific) as a secondary antibody; and Hoechst 33258 (Thermo Fisher Scientific) for nuclear staining.
The mesoderm induction ratio was determined from the ratio of Brachyury-positive embryoid bodies in all embryoid bodies present in an immunostaining photographic image.

[3] = system: human iPS cell-derived mesoderm cell constructs; experiment: Osteoblastic differentiation induction with small-molecule compound, histochemical observation of mineralization (von Kossa)
Method: As a control, non-adherent culture was performed without shaking. The medium was changed every 7 days. The resultant sample was subjected to immunofluorescent staining, specifically hematoxylin and eosin (H&E) staining, von Kossa staining, or Osteocalcin, and subjected to histochemical observation.

[4] = system: human iPS cell embryoid bodies; experiment: Comparative Example: retinoic acid culture instead of mesoderm induction, then osteoblastic differentiation induction; shape of cell construct; settings: ES medium 2 days, then 2 days with 1 µM retinoic acid, then osteoblastic differentiation induction without mesoderm induction step
Method: iPS cells were obtained in accordance with the method described in (1-1) above, and subjected to culture in an ES medium corresponding to (1-2) above for 2 days. The resultant embryoid bodies of the iPS cells were collected, and further cultured for 2 days using the above-mentioned ES medium having blended therein 1 µM retinoic acid (all-trans retinoic acid: Sigma). After that, the step of inducing differentiation into osteoblasts described in (1-4) above was performed without the step of inducing differentiation into mesoderm cells described in (1-3) above.

Cc1c[nH]c(-c2cnc(NCCNc3ccc(C#N)cn3)nc2-c2ccc(Cl)cc2Cl)n1 [CHIR99021]
expression of the mesodermal marker (Brachyury), immunofluorescent staining [1]: marked expression of Brachyury was similarly found
mesoderm induction ratio (ratio of Brachyury-positive embryoid bodies in all embryoid bodies) [2]: 57%

CC1=C2C[C@H]3[C@@H](CC=C4C[C@@H](O)CC[C@@]43C)[C@@H]2CC[C@]12O[C@@H]1C[C@H](C)CN[C@H]1[C@H]2C [cyclopamine]
expression of the mesodermal marker (Brachyury), immunofluorescent staining [1]: the expression of Brachyury was found, though not as marked as in the presence of CHIR99021

CC(=O)N(O)CCCCCNC(=O)CCC(=O)N(O)CCCCCNC(=O)CCC(=O)N(O)CCCCCN [desferrioxamine]
mineralization of cell construct on day 30 ([3]; day 30 of the osteoblastic differentiation induction, 10 μM desferrioxamine): markedly mineralized cell construct
mineralization of osteoblast construct ([3]; osteoblastic differentiation induction medium supplemented with 10 μM desferrioxamine or 1 μM simvastatin, non-adherent shaking culture): markedly mineralized osteoblast construct

CC1=C(/C=C/C(C)=C/C=C/C(C)=C/C(=O)O)C(C)(C)CCC1 [retinoic acid, all-trans retinoic acid]
shape of resultant osteoblast-like cell construct [4]: not solid cell constructs, but were bag-like; also recorded: hollow bag-like (sac-like) shape
